Test results published in patent US10342796B2, “Acrylanilide derivative, preparation method, and applications thereof in pharmacy” (Ancureall Pharmaceutical (Shanghai) Co., Ltd., priority 2015, dated 2019).

What was measured:
Test in all cases: Growth inhibition GI50 in vitro (CCK8/MTT, 72 h)
Assay type in all cases: cell-based, human
N87 (HER2 Amp) = conditions: Homo sapiens; Table 13, 72 h; read-out: Range of GI50 N87 (HER2 Amp)
A549 (EGFR WT) = conditions: Homo sapiens, A549; Table 13, 72 h; read-out: Range of GI50 A549 (EGFR WT)
From the text: EGFR wild type cell lines: human epidermal cancer cell line A431 (EGFR WT, amplification and high expression, from Shanghai Cell Bank of Chinese Academy of Sciences and ATCC), NSCLC cell lines NCI-H460 (EGFR WT, Kras G61H and PI3KCA E545K mutants, ATCC) and NCI-H1299 (EGFR WT, ATCC), melanoma cell line A375 (EGFR WT and BRAF V600E mutant, from Shanghai Cell Bank of Chinese Academy of Sciences, ATCC), human lung cancer cell line NCI-H292 (EGFR WT, from human lung mucoepidermoid carcinoma/lymphatic metastasis, purchased from Shanghai Cell Bank of Chinese Academy of Sciences) were cultured with 1×RPMI1640 complete medium which was supplement with 10% FBS. NSCLC cell line A549 (EGFR WT and Kras G12S mutant, from Shanghai Cell Bank of Chinese Academy of Sciences) was cultured with 1×Ham'S F12K complete medium which was supplement with 10% FBS, 1% double-antibiotics and 2 mM glutamine.
(§1) The suspension cells were collected by centrifugation. The supernatant was discard and the cell pellet was resuspended and counted. Different cell concentrations (5˜10×10^4 cells/mL) were prepared according to the growth cycle of each cell line and then seeded on a 96-well plate (Corning), 100 μL/well. The cells were incubated over night at 37° C., 5% CO2. The compounds were added to the cells on the second day with 2 wells in parallel. The final concentration of organic solvent shall not exceed 1%. The cells were continually incubated for 72 h, and then subjected to MTT assay.
(§2) The present compounds and the reference compounds were dissolved with DMSO (Sigma), respectively. […] The storage concentration of compounds was 10 mM and kept at −20° C. They were diluted by 2 times or 10 times with serial dilution before using.
(§3) Dojindo CCK8 reagent kit was used as MTT assay. […] FC meter was used as microplate reader.
(§4) Adherent cell culture medium was discard and immediately replaced with fresh prepared medium which contains 10% CCK8 reagent (100 μL/well). For the suspension cells, CCK8 was directly added to 10% of the final concentration. The cells were continually incubated for 1˜4 h. When the color of control wells turned to dark yellow, the absorption value was measured at OD450 nm. The cell growth rate was calculated according to the following formula: cell growth rate (%)=100*(T−T0)/(C−T0), T=optical density of drug treatment cell well—optical density of blank control well; T0=optical density of cell well before drug treatment—optical density of blank control well; C=optical density of cell well of solvent control group—optical density of blank control well. […] The experiment was independently repeated 1˜3 times, and subject to biological statistical analysis.

PC-9 (EGFR dE746-A750) = conditions: Homo sapiens; Table 13, 72 h; read-out: Range of GI50 PC-9 (EGFR dE746-A750)
Experimental: (§5) PC-9ER is an acquired Erlotinib resistance cell line of PC-9 cells developed by the investor. […] The four cell lines above were cultured with 1×RPMI1640 complete medium (supplement with 10% FBS). Human colon cancer cell line SW48 (EGFR G719S positive, ATCC). was cultured with L15 complete medium (10% FB S).
as §1, §2, §3, §4

H1975 (EGFR L858R/T790M) = conditions: Homo sapiens, NCI-H1975; Table 13, 72 h; read-out: Range of GI50 H1975 (EGFR L858R/T790M)
Experimental: as §5, §1, §2, §3, §4

SMILES	GI50 (A549 (EGFR WT)) [nM]	GI50 (PC-9 (EGFR dE746-A750)) [nM]	GI50 (H1975 (EGFR L858R/T790M)) [nM]	GI50 (N87 (HER2 Amp)) [nM]
C=CC(=O)Nc1cc(Nc2ncc(Cl)c(-n3ccc4c(OC)cccc43)n2)c(OC)cc1N(C)CCN(C)C [Compound 203, N-(5-(4-(4-methoxyl-1H-indol-1-yl)-5-chloropyrimidin-2-ylamino)-2-(2-(dimethylamino-ethyl)-methyl-amino)-4-methoxyl-phenyl)-acrylamide]	> 1000	< 10	< 10	< 10
C=CC(=O)Nc1cc(Nc2nccc(-n3ccc4c(O)cccc43)n2)c(OC)cc1N(C)CCN(C)C [Compound 204, N-(5-(4-(4-hydroxyl-1H-indol-1-yl)-pyrimidin-2-ylamino)-2-(2-(dimethylamino-ethyl)-methyl-amino)-4-methoxyl-phenyl)-acrylamide]	> 1000	10 to 100	10 to 100	< 10
C=CC(=O)Nc1cc(Nc2nccc(-n3ccc4c(OCCCCCC)cccc43)n2)c(OC)cc1N(C)CCN(C)C [Compound 206, N-(5-(4-(4-n-hexyloxy-1H-indol-1-yl)-pyrimidin-2-ylamino)-2-(2-(dimethylamino-ethyl)-methyl-amino)-4-methoxyl-phenyl)-acrylamide]	> 1000	100 to 1000	100 to 1000	100 to 1000
C=CC(=O)Nc1cc(Nc2nccc(-n3ccc4c(OCC5CCCO5)cccc43)n2)c(OC)cc1N(C)CCN(C)C (centres unmarked) [Compound 207, N-(5-(4-(4-((tetrahydrofuran-2-yl)-methoxyl)-1H-indol-1-yl)-pyrimidin-2-ylamino)-2-(2-(dimethylamino-ethyl)-methyl-amino)-4-methoxyl-phenyl)-acrylamide]	> 1000	10 to 100	10 to 100	10 to 100
C=CC(=O)Nc1cc(Nc2nccc(-n3ccc4c(OC)cccc43)n2)c(OC)cc1N1CCC(N2CCN(C)CC2)CC1 [Compound 208, N-(5-(4-(4-methoxyl-1H-indol-1-yl)-pyrimidin-2-ylamino)-2-(4-(4-methyl-piperazin-1-yl)-piperidin-1-yl)-4-methoxyl-phenyl)-acrylamide]	> 1000	100 to 1000	100 to 1000	10 to 100
C=CC(=O)Nc1cc(Nc2nccc(-n3ccc4c(-n5c(C)ccc5C)cc(Br)cc43)n2)c(OC)cc1N(C)CCN(C)C [Compound 214]	> 1000	10 to 100	10 to 100	10 to 100
C=CC(=O)Nc1cc(Nc2cc(Nc3ccc(OCCC(C)C)c(Cl)c3)ncn2)c(OC)cc1N(C)CCN(C)C [Compound 219, N-(5-(6-(3-chloro-4-(3-methylbutoxy)-phenylamino)-pyrimidin-4-ylamino)-2-((2-dimethylaminoethyl)-methyl-amino)-4-methoxyphenyl)-acrylamide]	> 1000	< 10	10 to 100	10 to 100
C=CC(=O)Nc1cc(Nc2cc(Nc3ccc(OCc4nccs4)c(Cl)c3)ncn2)c(OC)cc1N(C)CCN(C)C [Compound 223, N-(5-(6-(3-chloro-4-(thiazol-2-ylmethoxy)-phenylamino)-pyrimidin-4-ylamino)-2-((2-dimethylamino-ethyl)-methyl-amino)-4-methoxyl-phenyl)-acrylamide]	> 1000	10 to 100	10 to 100	10 to 100
C=CC(=O)Nc1cc(Nc2cc(Nc3ccc(F)c(C(F)(F)F)c3)ncn2)c(OC)cc1N(C)CCN(C)C [Compound 226, N-(5-(6-(4-fluoro-3-trifluoromethyl-phenylamino)-pyrimidin-4-yl-amino)-2-((2-dimethylamino-ethyl)-methyl-amino)-4-methoxyl-phenyl)-acrylamide]	> 1000	< 10	10 to 100	10 to 100
C=CC(=O)Nc1cc(Nc2cc(Nc3ccc(OC)c(Cl)c3)ncn2)c(OC)cc1N1CCN(C2CCN(C)CC2)CC1 [Compound 227, N-(5-(6-(3-chloro-4-methoxyl-phenylamino)-pyrimidin-4-ylamino)-2-(4-(1-methylpiperidin-4-yl)-piperazin-1-yl)-4-methoxyl-phenyl)-acrylamide]	> 1000	< 10	100 to 1000	10 to 100
C=CC(=O)Nc1cc(Nc2cc(Nc3ccc(Cl)c(C(F)(F)F)c3)ncn2)c(OC)cc1N(C)CCN(C)C [Compound 228, N-(5-(6-(4-chloro-3-trifluoromethyl-phenylamino)-pyrimidin-4-yl-amino)-2-((2-dimethylamino-ethyl)-methyl-amino)-4-methoxyl-phenyl)-acrylamide]	> 1000	< 10	10 to 100	10 to 100

More lines, main results first:

GI50 (A549 (EGFR WT)) [nM]	GI50 (PC-9 (EGFR dE746-A750)) [nM]	GI50 (H1975 (EGFR L858R/T790M)) [nM]	SMILES	GI50 (N87 (HER2 Amp)) [nM]
> 1000	< 10	10 to 100	C=CC(=O)Nc1cc(Nc2cc(Nc3ccc(OCCN4CCOCC4)c(Cl)c3)ncn2)c(OC)cc1N(C)CCN(C)C [Compound 215, N-(5-(6-(3-chloro-4-(2-morpholin-4-yl-ethoxyl)-phenylamino)-pyrimidin-4-ylamino)-2-((2-dimethylamino-ethyl)-methyl-amino)-4-methoxyphenyl)-acrylamide]	10 to 100
> 1000	< 10	10 to 100	C=CC(=O)Nc1cc(Nc2cc(Nc3ccc(OC)c(Cl)c3)ncn2)c(OC)cc1OCCN(C)C [Compound 218, N-(5-(6-(3-chloro-4-methoxyl-phenylamino)-pyrimidin-4-ylamino)-2-(2-dimethylamino-ethoxyl)-4-methoxyl-phenyl)-acrylamide]	10 to 100
> 1000	< 10	10 to 100	C=CC(=O)Nc1cc(Nc2cc(Nc3ccc(OC)c(C(F)(F)F)c3)ncn2)c(OC)cc1N(C)CCN(C)C [Compound 222, N-(5-(6-(4-methoxyl-3-trifluoromethyl-phenylamino)-pyrimidin-4-yl-amino)-2-((2-dimethylamino-ethyl)-methyl-amino)-4-methoxyl-phenyl)-acrylamide]	10 to 100
> 1000	< 10	10 to 100	C=CC(=O)Nc1cc(Nc2cc(Nc3ccc(OC)c(Br)c3)ncn2)c(OC)cc1N(C)CCN(C)C [Compound 224, N-(5-(6-(4-methoxyl-3-bromo-phenylamino)-pyrimidin-4-yl-amino)-2-((2-dimethylamino-ethyl)-methyl-amino)-4-methoxyl-phenyl)-acrylamide]	10 to 100
	10 to 100	10 to 100	C=CC(=O)Nc1cc(Nc2cc(Nc3ccc(OC)c(Cl)c3)ncn2)c(OC)cc1N(C)CCN1CCCC1 [Compound 225]	10 to 100
> 1000	10 to 100	10 to 100	C=CC(=O)Nc1cc(Nc2cc(Nc3ccc(C(F)(F)F)c(Cl)c3)ncn2)c(OC)cc1N(C)CCN(C)C [Compound 234, N-(5-(6-(3-chloro-4-trifluoromethyl-phenylamino)-pyrimidin-4-yl-amino)-2-((2-dimethylamino-ethyl)-methyl-amino)-4-methoxyl-phenyl)-acrylamide]	10 to 100
> 1000	10 to 100	10 to 100	C=CC(=O)Nc1cc(Nc2cc(Nc3ccc(OC(F)(F)F)c(Cl)c3)ncn2)c(OC)cc1N(C)CCN(C)C [Compound 235, N-(5-(6-(3-chloro-4-trifluoromethoxy-phenylamino)-pyrimidin-4-yl-amino)-2-((2-dimethylamino-ethyl)-methyl-amino)-4-methoxyl-phenyl)-acrylamide]	10 to 100
